Test results reported in patent EP3538062B1, “ASSOCIATION CONSISTING OF INOSITOL AND ARGININE FOR MAINTAINING HOMEOSTASIS OF THE HAIR AND SCALP” (Unifarco S.p.A., priority 2016, dated 2018).
Several values for one entry are separate records, joined by “and”; a condition that tells them apart may be missing. Equal values may be shown once.

Experiments:
Type in all cases: cell-based, human
type IV collagen (COLIV) = experiment: Semi-quantitative determination of type IV collagen by immunofluorescence (confocal microscopy); conditions: 120 H; duplicate (one row per replicate); Inositol 0.5%, Inositol + Arginine 0.25% + 0.25%
[1] = system: co-spheroidal culture DPF-ORSK; experiment: Morphological evaluation of proto-follicle microtissues by H&E staining; conditions: Inositol 0.5%, Inositol 0.25% + L-arginine 0.25%
Method: (§1) The reconstituted proto-follicle was obtained by using fibroblast cells and human keratinocytes using the Gravity^PLUS™ method, a system developed by InSphero (InSphero AG, Zurich, Switzerland), which allows the formation of spheroids or micro-tissues of homogeneous size using the hanging drops technology. The micro-tissues were transferred to Gravity^TRAP plates for treatment and control of culture conditions: 37 °C incubator, 5% CO2, suitably saturated atmosphere of the culture medium.
(§2) In order to assess the biological effect of each of the above compositions on the micro-tissue cultures in question, the following parameters were measured: • Quantification of ATP, as a marker of cell viability. • Morphological evaluation during culture of the proto-follicle, by staining with hematoxylin-eosin (H&E). • Immunohistochemical evaluation of Cytokeratin 6 (CK6), wherein CK6 is a keratin type II present in the skin and the hair follicle, which has an important role in the formation of the intermediate filament and is involved in tissue remodeling during stress phenomena.
(§3) In order to observe the short- and long-term effect of the compositions mentioned above, the evaluation of the above parameters was made at 24H (T2) and 120H (T6) after the beginning of therapy.

Cytokeratin 6 (CK6) = experiment: Immunohistochemical evaluation of cytokeratin 6 in proto-follicle microtissues; conditions: Inositol 0.5%, Inositol 0.25% + L-arginine 0.25%, Cyclosporin A 10 ng/mL; result in words
Method: as §1, §2, §3

## O[C@H]1[C@H](O)[C@@H](O)[C@H](O)[C@@H](O)[C@H]1O [Inositol]
Type IV collagen (COLIV)
  semi-quantitative analysis of COLIV: 69 and 94
[1]; T2 (24H)
  morphological qualitative evaluation of micro-tissues (H&E): more compact lamellar structure
[1]; T6 (120H), Cyclosporin A 10 ng/mL
  morphological qualitative evaluation of micro-tissues (H&E): more compact lamellar structure
Cytokeratin 6 (CK6)
  follicular CK6 expression / proto-hair structure and coloring: not different from those shown by the samples treated with Cyclosporin A
